Measurements: US20080004290A1, “Anti-Cancer Agents” (THE UNIVERSITY OF QUEENSLAND, priority 2003, published 2008)
Like-named read-outs stand apart in the source and are kept apart here.

Experiments:
Format in all cases: cell-based, human
AF-6 cells = experiment: Cell survival assay (SRB)
Protocol: (§1) Cell Lines and Culture Medium. All cell lines used in this study have been described previously (Parsons et al., 1986; Todaro et al., 1980; Glenn et al., 2004). All cell lines were cultured in 10% heat-inactivated foetal calf serum (CSL, Australia) in RPMI 1640 medium supplemented with 100 U/mL penicillin, 100 μg/mL streptomycin, and 3 mM HEPES at 5% CO2, 99% humidity at 37° C. Primary human fibroblasts were obtained from neonatal foreskins and cultured in the above medium. Routine mycoplasma tests were performed using Hoechst stain^i and were always negative.
(§2) Cell Survival Assay. Cells were plated into 96-well microtitre plates at 5×10^3 cells/well, and allowed to adhere overnight. Test compounds were added to culture medium at the indicated concentrations, and plates incubated in the above conditions for 24 hours. Following this incubation period, compounds and media were removed, and replaced with fresh culture medium. Cells were then grown for a further 72 hours before assay using sulforhodamine B (SRB; Sigma, St. Louis, Mo.) as previously described. Briefly, the culture medium was removed from the 96-well microtitre plates and the plates washed twice with phosphate buffered saline (PBS), before the cells were fixed with methylated spirits for 15 minutes. The plates were then rinsed with tap water and the fixed cells stained with 50 μL/well of SRB solution (0.4% sulforhodamine B (w/v) in 1% (v/v) acetic acid) over a period of 1 hour. The SRB solution was then removed from the wells and the plates rapidly washed two times with 1% (v/v) acetic acid. Protein bound dye was then solubilised with the addition of 100 μL of 10 mM unbuffered Tris, and incubated for 15 min at 25° C. Plates were then read at 564 nm on a VERSA max tunable microplate reader (Molecular Devices, Sunnyvale, Calif.).

A2058 cells = experiment: Cell survival assay (SRB)
Protocol: as §1, §2

D14 melanoma cells = experiment: Cell survival assay (SRB)
Protocol: as §1, §2

MM604 melanoma cells = experiment: Cell survival assay (SRB)
Protocol: as §1, §2

Mel RM melanoma cells = experiment: Cell survival assay (SRB)
Protocol: as §1, §2

LSP M2 cells = experiment: Cell survival assay (SRB)
Protocol: as §1, §2

D11 melanoma cells = experiment: Cell survival assay (SRB)
Protocol: as §1, §2

MM329 melanoma cells = experiment: Cell survival assay (SRB)
Protocol: as §1, §2

MM470 melanoma cells = experiment: Cell survival assay (SRB)
Protocol: as §1, §2

Mel FH melanoma cells = experiment: Cell survival assay (SRB)
Protocol: as §1, §2

HeLa cells = experiment: Cell survival assay (SRB)
Protocol: as §1, §2

D17 melanoma cells = experiment: Cell survival assay (SRB)
Protocol: as §1, §2

MM229 melanoma cells = experiment: Cell survival assay (SRB)
Protocol: as §1, §2

AO7 RM cells = experiment: Cell survival assay (SRB)
Protocol: as §1, §2

[1] = tested on: NFF, neonatal foreskin fibroblasts; experiment: Cell survival assay (clonogenic survival, SRB), normal cells; conditions: Homo sapiens, Fibroblast
Procedure, shortened: (§3)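 Cells (5×10^3/well, RPMI 1640 with 10% FCS) treated 24 h with compound at 0.01-10 μg/mL, then washed and grown 72 h drug-free at 37 °C, 5% CO2. Survival read by SRB staining after methylated-spirit fixation, absorbance 564 nm.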

SkMel28 melanoma cells = experiment: Cell survival assay (SRB)
Procedure, shortened: (§4)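 Cells in RPMI 1640 with 10% FCS at 37 °C, 5% CO2, seeded at 5×10^3 cells/well and adhered overnight. Compound exposure for 24 h, then washout and 72 h further growth in fresh medium. Survival read by SRB staining of ethanol-fixed cells, absorbance at 564 nm.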

DO4 melanoma cells = experiment: Cell survival assay (SRB)
Procedure, shortened: as §4

MM96L melanoma cells = experiment: Cell survival assay (clonogenic survival, SRB); conditions: for IC50: Homo sapiens, MM96L
Procedure, shortened: as §3

[2] = Homo sapiens, Table 11, antiproliferative potency
[3] = Table 11, IC50 (NFF)/IC50(cancer cell line)

**Q.** What does the source list for CN(C)c1ccc(C(=O)N[C@@H](CCCCCC(=O)NO)C(=O)NCc2ccccc2)cc1 (racemic) [Example 124]?
**A.** IC50 (AF-6 cells; [2]): 0.3 ± 0.03 µM; Selectivity AF-6 (AF-6 cells; [3]): 3; IC50 (A2058 cells; Homo sapiens, A2058, Table 11, antiproliferative potency): 0.1 ± 0.02 µM; Selectivity A2058 (A2058 cells; [3]): 9; IC50 (D14 melanoma cells; [2]): 0.26 ± 0.08 µM; Selectivity D14 (D14 melanoma cells; [3]): 3; IC50 (MM604 melanoma cells; [2]): 0.01 ± 0.01 µM; Selectivity MM604 (MM604 melanoma cells; [3]): 87; IC50 (Mel RM melanoma cells; [2]): 0.95 ± 0.07 µM; Selectivity Mel RM (Mel RM melanoma cells; [3]): 0.9; IC50 (LSP M2 cells; [2]): 0.45 ± 0.05 µM; Selectivity LSP M2 (LSP M2 cells; [3]): 2; IC50 (D11 melanoma cells; [2]): 0.3 ± 0.2 µM; Selectivity D11 (D11 melanoma cells; [3]): 3; IC50 (MM329 melanoma cells; [2]): 0.06 ± 0.04 µM; Selectivity MM329 (MM329 melanoma cells; [3]): 15; IC50 (MM470 melanoma cells; [2]): 0.09 ± 0.07 µM; Selectivity MM470 (MM470 melanoma cells; [3]): 10; IC50 (Mel FH melanoma cells; [2]): 0.08 ± 0.04 µM; Selectivity Mel FH (Mel FH melanoma cells; [3]): 11; IC50 (HeLa cells; [2]): 0.09 ± 0.01 µM; Selectivity HeLa (HeLa cells; [3]): 10; IC50 (D17 melanoma cells; Homo sapiens, D17, Table 11, antiproliferative potency): 0.06 ± 0.02 µM; Selectivity D17 (D17 melanoma cells; [3]): 15; IC50 (MM229 melanoma cells; [2]): 0.6 ± 0.08 µM; Selectivity MM229 (MM229 melanoma cells; [3]): 1.5; IC50 (AO7 RM cells; [2]): 0.18 ± 0.07 µM; Selectivity AO7 RM (AO7 RM cells; [3]): 5; IC50 ([1]; NFF normal fibroblasts, 24 h with compound, further 72 h growth, SRB, read-out: IC50 (uM) NFF): 0.87 ± 0.07 µM; IC50 ([1]; Table 11, antiproliferative potency, read-out: IC50 (μM) NFF): 0.87 ± 0.07 µM; IC50 (SkMel28 melanoma cells; Homo sapiens, SK-MEL-28, Table 11, antiproliferative potency, read-out: IC50 (μM) SK Mel 28): 0.06 ± 0.04 µM; Selectivity SK Mel 28 (SkMel28 melanoma cells; [3]): 15; IC50 (DO4 melanoma cells; Homo sapiens, DO4, Table 11, antiproliferative potency, read-out: IC50 (μM) DO4): 0.12 ± 0.03 µM; Selectivity DO4 (DO4 melanoma cells; [3]): 7; IC50 (MM96L melanoma cells; MM96L melanoma, 24 h with compound, further 72 h growth, SRB, read-out: IC50 (uM) MM96L): 0.13 ± 0.02 µM; IC50 (MM96L melanoma cells; Table 11, antiproliferative potency, read-out: IC50 (μM) MM96L): 0.13 ± 0.02 µM; IC50 (MM96L melanoma cells; most preferred compounds, exemplary examples, read-out: potency of IC50 against the MM96 melanoma cells): ≤ 0.5 µM; SI (Selectivity Index = IC50 (NFF)/IC50 (MM96L)) (MM96L melanoma cells; NFF vs MM96L): 6.7; Selectivity MM96L (MM96L melanoma cells; [3]): 6.7
